Results published in patent US8778971B2, “Medicinal treatment of dermal diseases in companion animals” (Bridge Pharma, Inc., priority 2012, dated 2014).
Marks after values point to notes of the source that are not given here.

What was measured:
histamine H1-receptors = histamine H1-receptors (Homo sapiens, UniProt P35367); assay: H1 receptor binding, [3H]pyrilamine ligand; details: human recombinant receptors, read-out: H-1/IC50
Protocol: H1 receptor binding studies were conducted utilizing human recombinant receptors. In the studies shown herein, affinities of the test compounds for histamine H1-receptors were assessed using a binding assay, where [^3H]pyrilamine was used as the ligand and the test compounds were used at increasing concentrations. The specific binding of the radioactive ligand to the receptor was defined as the difference between total binding and nonspecific binding, determined in the presence of excess unlabeled ligand.

[1] = tested on: human leukocytes (buffy coat); assay: Inhibition of A23187-stimulated histamine release from leukocytes; assay type: cell-based; details: for IC50: Homo sapiens, Leukocyte, 20 min, A23187 5 μM, 20 min/37° C., read-out: Inhibition of inflammatory mediator (histamine) release
Protocol: In these studies, histamine was the marker compound for inflammatory mediators that are released from mast cells and other pro-inflammatory cells in patients with atopic inflammatory diseases. The inhibition of stimulated histamine release from human leukocytes (buffy coat) by test articles was studied. Leukocytes were obtained from healthy volunteers and histamine release was induced by incubation (20 min/37° C.) with the calcium ionophore A23187 (5 μM) in the presence or absence of a test article. Histamine was analyzed by enzyme-immune assays, using commercially available kits and a microplate reader (MRX, Dynatech). The test articles were evaluated, in duplicate, at five concentrations.

Malassezia pachydermatis = assay: Antimicrobial test, Malassezia study; assay type: cell-based; details: after 24 hours
Protocol: The test article (norketotifen) was weighed and diluted into PBS to final concentrations of 0.210% and 0.035% before use. A 5 mL volume of the Test Article was aliquoted to a sterile 15 mL tube and the Malassezia sp (for example M. pachydermatis) were added at target concentrations of approx. 1.0×10^6 CFU/mL. The resulting mixture was vortexed thoroughly and incubated at room temperature for 7 days. A 0.500 mL aliquot of control and test tubes were harvested in 9.5 mL of D/E broth and any surviving test microorganisms were enumerated per standard dilution and plating techniques. Reductions were compared to a PBS Control at Time Zero and replicate tests were performed.

rats = assay: Acute toxicity, Up-and-Down Procedure; assay type: in vivo; details: RAT, hydrogen fumarate salts
Protocol: Acute toxicological studies were performed in rats (Sprague-Dawley; M and F; 200-250 grams). The animal-sparing Up-and-Down Procedure (FDA, OECD) was used. Both oral and intravenous toxicity tests were performed.
Both compounds were administered as hydrogen fumarate salts.

[2] = Solubility of norketotifen in non-aqueous solvents; assay type: physicochemical
Protocol: The hydrophobic ointment was prepared by dissolving norketotifen in propylene glycol. […] Next, glyceryl stearate, cetyl alcohol, and white petrolatum were added to a suitable container and heated to 65-70° C. This heating step melts the surfactants and the petrolatum. Next, norketotifen solution was slowly added and the composition mixed until the solvent was dispersed. Finally, the composition was cooled with mixing to allow the ointment to thicken.

[3] = tested on: histamine-induced pruritus; assay: Histamine-induced pruritus, topical cream; assay type: in vivo; details: mice, 1.0% cream topical 60 min before histamine
Protocol: Antipruritic effects were tested in vivo in CD-1 female mice aged 10-12 weeks, according to methods known in the art. The hair was clipped over the rostral part of the back at the interscapular level of the mice one day before dosing. Before testing, the mice were placed in individual clear plastic cages for at least one hour for acclimation. […] Lanolin was weighed and liquified by submerging the vessel containing lanolin in hot water. While the lanolin was liquid, it was rapidly nixed (by vortexing) with the 2.5% norketotifen solution in ethanol, resulting in a 1.0% solution. […] A cream containing 60% lanolin/40% ethanol served as control.

croton oil-treated ears [4] = assay: Modified croton oil ear inflammation, topical cream; assay type: in vivo; details: mice, 1.0% cream topical
Protocol: In order to investigate the effects of topical administration of the test compounds in dermal inflammation, a modified croton oil model was used. […] The cream was then removed and a solution of 1% croton oil in 20 μl acetone was applied to both ears. […] Cream was wiped from the ears and ears were removed and weighed. […] All results represent mean ear weights (±S.E.M.) from 8 ears.

mice = assay: Sedative effects in mice, physostigmine lethality test; details: for Sedated animals: mice
Protocol: In short, physostigmine (1.0 mg/kg to 2.0 mg/kg, s.c.) generally results in 100% lethality when given to groups of mice (10 mice/group) transferred into a small volume of space. Mice administered a sedating drug prior to the physostigmine injection are protected from the stress and survive. In the present study, test compounds were given orally 60 minutes prior to physostigmine injection. The number of surviving (sedated) mice was counted 30 minutes after injection of the physostigmine dose.

croton oil-treated ears [5] = assay: Croton oil ear inflammation, systemic (ip) administration; assay type: in vivo; details: mice, 10 mg/kg ip
Protocol: In order to investigate the effects of systemic administration of the test compounds in dermal inflammation, a croton oil model was used as is known in the art. This test consists of topical application of 20 μl of 1.0% croton oil to each ear of male mice, weighing 28-32 g. […] Application of the croton oil results in an inflammatory response. The weight of croton oil-treated ears was determined and the percent increase in ear weight is calculated. Test articles were dosed systemically (ip). […] All results represent mean ear weights (±S.E.M.) from 10 ears.

dogs = assay: Sedative effects in dogs, cross-over oral dosing; assay type: in vivo; details: for Frequency of sedation: 20 mg/kg/day oral; for Sedation in dogs (in words): oral
Protocol: Sedation studies in dogs were performed according to a cross-over protocol, where the dogs were administered once daily the test articles orally at a dose of 20 mg/kg bodyweight that in a previous toxicology study was marginally toxic in dogs with equal plasma concentrations of R-norketotifen and S-norketotifen.
The test articles were administered in gelatin capsules and vehicle-capsules were empty. All dogs were healthy beagles (four males and two females), age 24-36 months, weighing 7.8-10.6 kg. The dogs were dosed at 9-10 AM and had been fasted overnight before dosing. There was a washout period of at least three days in all dogs between the tests. All assessments of sedation/sleepiness were made by a qualified (D.V.M.) scientist with extensive experience (>15 years) in studies with conscious laboratory dogs. The test articles were in the form of hydrogen fumarate salts.
It had previously been observed that dogs rarely express sedation in response to oral administration of benzocycloheptathiophene compounds on the first day of dosing and the dogs were therefore administered the test articles for three consecutive days.

Candida albicans = assay: Antimicrobial test, plate count; assay type: cell-based; details: 0.035% norketotifen, within 7 days, from 500,000
Protocol: (§1) Studies were performed to evaluate possible antimicrobial activities of norketotifen at various concentrations and various pHs. […]. The standard microbial solutions of norketotifen contained the following excipients: Sodium citrate (0.3%), propylene glycol (1.75%), methylparaben (0.03%), propylparaben (0.01%), sterile water (as diluent).
(§2) The microorganisms were inoculated into 50 mL centrifuge tubes containing 10 mL of test sample at T=0. One (1) mL was aliquoted from each centrifuge tube for each of the following 4 weeks (except at 21 days). The log reduction was determined by the plate count method after 7, 14 and 28 days by diluting in DEB (D/E neutralizing Broth) from 10^−1 to 10^−4 for bacteria. Bacterial plates were poured with SCDA (Soybean Casein Digest Agar) and incubated at 32.5±2.5° C. for 3-5 days

Staphylococcus aureus = assay: Antimicrobial test, plate count; assay type: cell-based; details: 0.035% norketotifen, within 7 days, from 750,000
Protocol: as §1, §2

[6] = tested on: histamine-induced wheal response; assay: Antihistaminic activity in vivo, intradermal histamine wheal; design: species or system rats; details: rat; for Histamine wheal area: 60 min before histamine; for Saline wheal area: histamine vehicle injection; for Histamine effect: histamine minus saline
Protocol: Male rats (150-200 g) were fasted overnight and twelve hours after dorsal depilation, the animals were orally pretreated with the test compound(s). Four dorsal test areas were marked with permanent ink, carefully avoiding the area closest to the spine. […] Two intradermal injections of the vehicle for the histamine solution were also performed. […] Twenty minutes were allowed for the wheal response to fully develop, whereupon the animals were euthanized and the dorsal skin with the intradermal wheals were deflected. The blue spotted areas were measured in square millimeters and the duplicate wheal areas were averaged. […] The inhibition was calculated in percent difference from said baseline values.

[7] = oral 10 mg/kg, versus vehicle baseline

Chain of histamine H1-receptors (P35367 whole entry): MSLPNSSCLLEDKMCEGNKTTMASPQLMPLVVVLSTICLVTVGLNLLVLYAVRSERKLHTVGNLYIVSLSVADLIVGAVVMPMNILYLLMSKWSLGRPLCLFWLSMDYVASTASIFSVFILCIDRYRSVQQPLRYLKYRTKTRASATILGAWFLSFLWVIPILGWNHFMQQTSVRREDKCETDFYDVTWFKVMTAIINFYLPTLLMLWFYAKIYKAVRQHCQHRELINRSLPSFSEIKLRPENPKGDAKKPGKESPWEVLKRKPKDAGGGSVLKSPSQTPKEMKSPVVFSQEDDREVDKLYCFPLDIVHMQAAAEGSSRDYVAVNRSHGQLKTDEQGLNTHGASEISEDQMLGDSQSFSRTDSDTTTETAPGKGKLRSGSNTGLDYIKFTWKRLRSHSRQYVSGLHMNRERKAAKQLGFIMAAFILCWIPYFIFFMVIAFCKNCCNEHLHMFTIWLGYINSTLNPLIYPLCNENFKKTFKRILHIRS

With O=C1Cc2ccccc2C(=C2CCNCC2)c2ccsc21 (racemic) [Norketotifen, (RS)-4-(piperidylidene)-9,10-dihydro-4H-benzo-(4,5)-cyclohepta-(1,2-b) thiophene-10-one] the IC50 (histamine H1-receptors) was 0.011 µM, the IC50 [1] was 9.2 µM and the “Times more potent than ketotifen as inhibitor of histamine release” value ([1]; pro-inflammatory cells) was “approximately 10 times”. For the same compound, the “Reduction of Malassezia pachydermatis” value (Malassezia pachydermatis; 0.035% norketotifen) was 99.8%, the “Reduction of Malassezia pachydermatis” value (Malassezia pachydermatis; 0.2% norketotifen) was 99.995% and the “Acute toxicity (estimated LD50)” value (rats; intravenous) was 10 to 15 mg/kg. For the same compound, the “Acute toxicity (estimated LD50)” value (rats; oral) was 1500 to 2000 mg/kg, the Solubility ([2]; formulation G1009, mixture of two polyethylene glycols) was “about 1.0%” and the Solubility ([2]; in propylene glycol) was “about 1.0%”. For the same compound, the “Bouts as % of Vehicle Controls” value [3] was 42 ** %, the Bouts/40 min [3] was 61 ± 4 and the “Bouts as % of Vehicle Controls” value ([3]; listed as RS-norketotifen) was 42%. For the same compound, the “Average Ear Weight ±S.E.M” value (croton oil-treated ears [4]; 0 (predose) min after croton oil) was 36 ± 1 mg, the “Average Ear Weight ±S.E.M” value (croton oil-treated ears [4]; 30 min after croton oil) was 36 ± 1 mg and the “Average Ear Weight ±S.E.M” value (croton oil-treated ears [4]; 60 min after croton oil) was 37 ± 2 mg. The “Average Ear Weight ±S.E.M” value (croton oil-treated ears [4]; 90 min after croton oil) was 36 ± 2 mg, the Sedated animals (mice; oral dose 83 mg/kg) was 3/10 and the Sedated animals (mice; oral dose 100 mg/kg) was 3/10. The Sedated animals (mice; oral dose 150 mg/kg) was 3/10, the Sedated animals (mice; oral dose 180 mg/kg) was 6/10 and the “Sedation in mice (in words)” value (mice; physostigmine lethality test) was “expressed sedative activity”. For the same compound, the “Average Ear weight ±SEM” value (croton oil-treated ears [5]; 90 min) was 34 ± 1 mg, the “Average Ear weight ±SEM” value (croton oil-treated ears [5]; 120 min) was 40 ± 1 mg and the Frequency of sedation (dogs; DAY 1) was 0/6. The Frequency of sedation (dogs; DAY 2) was 0/6, the Frequency of sedation (dogs; DAY 3) was 0/6 and the “Sedation in dogs (in words)” value (dogs) was “did not cause sedation in dogs”. For the same compound, the “Candida albicans count after incubation” value (Candida albicans) was 500 cells, the “Staphylococcus aureus count after incubation” value (Staphylococcus aureus) was 90,000 and the Histamine wheal area ([6]; oral 1.0 mg/kg) was 114 ± 8 mm^2. It also gave a Saline wheal area ([6]; oral 1.0 mg/kg) of 22 ± 1 mm^2, a Histamine effect ([6]; oral 1.0 mg/kg) of 92 mm^2 and an inhibition at 1 mg/kg ([6]; oral 1.0 mg/kg, versus vehicle baseline) of 2%. The Histamine wheal area ([6]; oral 10 mg/kg) was 39 ± 2 mm^2, the Saline wheal area ([6]; oral 10 mg/kg) was 22 ± 1 mm^2 and the Histamine effect ([6]; oral 10 mg/kg) was 17 mm^2. The inhibition at 10 mg/kg [6, 7] was 82%, the Histamine wheal area ([6]; oral 50 mg/kg) was 10 ± 1 mm^2 and the Saline wheal area ([6]; oral 50 mg/kg) was 12 ± 1 mm^2. For the same compound, the Histamine effect ([6]; oral 50 mg/kg) was 0 mm^2 and the inhibition at 50 mg/kg ([6]; oral 50 mg/kg, versus vehicle baseline) was 100%.
In the case of Clc1ccc2c(c1)CCc1cccnc1C2=C1CCNCC1 [DESLORATADINE], the Sedated animals (mice; oral dose 150 mg/kg) is reported as 0/10.
For CN(C)CCOC(c1ccccc1)c1ccccc1 [DIPHENHYDRAMINE], the Sedated animals (mice; oral dose 50 mg/kg) was 5/10, the Sedated animals (mice; oral dose 100 mg/kg) was 8/10 and the inhibition at 10 mg/kg [6, 7] was 31%.
For OCCOCCN1CCN(C(c2ccccc2)c2ccc(Cl)cc2)CC1 (centres unmarked) [HYDROXYZINE], the Sedated animals (mice; oral dose 100 mg/kg) was 9/10.
For CN1CCC(=C2c3ccccc3CC(=O)c3sccc32)CC1 [Ketotifen, 4-(1-methyl-4-piperidyline)-4H-benzo(4,5)-cyclohepta-(1,2-b) thiophene-10-one, reference compound], the IC50 [1] was 91 µM, the “Acute toxicity (estimated LD50)” value (rats; intravenous) was 5 to 10 mg/kg and the “Acute toxicity (estimated LD50)” value (rats; oral) was <300 mg/kg. For the same compound, the Sedated animals (mice; oral dose 25 mg/kg) was 5/10, the Sedated animals (mice; oral dose 50 mg/kg) was 8/10 and the Sedated animals (mice; oral dose 100 mg/kg) was 10/10. The “Average Ear weight ±SEM” value (croton oil-treated ears [5]; 90 min) was 37 ± 1 mg, the “Average Ear weight ±SEM” value (croton oil-treated ears [5]; 120 min) was 42 ± 1 mg and the Frequency of sedation (dogs; DAY 1) was 0/6. The Frequency of sedation (dogs; DAY 2) was 5/6, the Frequency of sedation (dogs; DAY 3) was 5/6 and the “Sedation in dogs (in words)” value (dogs) was “causes sedation in dogs”.
With CCOC(=O)N1CCC(=C2c3ccc(Cl)cc3CCc3cccnc32)CC1 [LORATADINE] the Sedated animals (mice; oral dose 150 mg/kg) was 1/10.
For COc1ccc(CN(CCN(C)C)c2ccccn2)cc1 [PYRILAMINE], the Sedated animals (mice; oral dose 100 mg/kg) was 8/10.
With O=C1Cc2ccccc2C(=C2CCNCC2)c2ccsc21 [R-NORKETOTIFEN] the Sedated animals (mice; oral dose 100 mg/kg, 100 mg/kg) was 3/10 and the Sedated animals (mice; oral dose 150 mg/kg, 150 mg/kg) was 3/10.
In the case of O=C1Cc2ccccc2C(=C2CCNCC2)c2ccsc21 [S-NORKETOTIFEN], the Sedated animals (mice; oral dose 100 mg/kg, 100 mg/kg) is reported as 0/10 and the Sedated animals (mice; oral dose 150 mg/kg, 150 mg/kg) is reported as 0/10.
For CC(C)(C)c1ccc(C(O)CCCN2CCC(C(O)(c3ccccc3)c3ccccc3)CC2)cc1 (centres unmarked) [TERFENADINE], the Sedated animals (mice; oral dose 150 mg/kg) was 0/10.
